# Results from patent US5955440A, “Macrolide LHRH antagonists” (Abbott Laboratories, priority 1998, dated 1999).
# Counter-ions that a name gives are not always drawn.
# Target: T1, LHRH rat pituitary receptor (Rattus norvegicus, UniProt P30969)
# T1 construct: from tissue; host or cells: rat pituitary
# T1 sequence (P30969 1-327): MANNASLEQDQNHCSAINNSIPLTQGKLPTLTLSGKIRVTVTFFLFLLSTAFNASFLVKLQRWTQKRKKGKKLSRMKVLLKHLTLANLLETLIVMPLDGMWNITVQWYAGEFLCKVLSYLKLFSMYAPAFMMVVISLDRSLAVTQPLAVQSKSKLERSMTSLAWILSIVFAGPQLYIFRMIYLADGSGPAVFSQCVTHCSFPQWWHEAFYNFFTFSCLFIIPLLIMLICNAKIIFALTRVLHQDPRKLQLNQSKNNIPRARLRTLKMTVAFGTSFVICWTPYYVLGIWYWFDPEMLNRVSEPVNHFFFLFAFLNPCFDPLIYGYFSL
# Test: LHRH rat pituitary receptor binding (pKI)
# Settings: negative logarithm of the equilibrium dissociation constants, Table 1
# Method: Representative compounds of the present invention were evaluated in in vitro tests for LHRH rat pituitary receptor binding (pKI) and for LH inhibition from rat pituitary cells for antagonist potency (pA2). The tests employed the methods detailed in F. Haviv, et al. J. Med. Chem., 32: 2340-2344 (1989). The receptor binding affinity (pKI) is the negative logarithm of the equilibrium dissociation constants.
row,receptor binding affinity (pKI),Molecule
1,8.11,"3'-N-Desmethyl-3'-N-[3-(3-pyridyl)propyl]-11-deoxy-11-[carboxy-(3,4-dichlorophenethylamino)]-6-O-methyl-erythromycin A 11,12-(cyclic carbamate) [Example 79]"
2,8.36,"CC[C@H]1OC(=O)[C@H](C)[C@@H](O[C@H]2C[C@@](C)(OC)[C@@H](O)[C@H](C)O2)[C@H](C)[C@@H](O[C@@H]2O[C@H](C)C[C@H](N(C)C3CC(C)C(C)C3)[C@H]2O)[C@](C)(OC)C[C@@H](C)C(=O)[C@H](C)[C@H]2N(CCc3ccc(Cl)c(Cl)c3)C(=O)O[C@]12C (some centres unmarked) [Example 9, 3'-N-Desmethyl-3'-N-(3,4-dimethylcyclopentyl)-11-deoxy-11-[carboxy-(3,4-dichlorophenethylamino)]-6-O-methyl-erythromycin A 11,12-(cyclic carbamate)]"

# Same assay, conditions: negative logarithm of the equilibrium dissociation constants, Table 1, read-out: receptor binding affinity (pKI) (converted)
row,Ki,Molecule
1,0.575 nM,"CC[C@H]1OC(=O)[C@H](C)[C@@H](O[C@H]2C[C@@](C)(OC)[C@@H](O)[C@H](C)O2)[C@H](C)[C@@H](O[C@@H]2O[C@H](C)C[C@H](N(C)C3CC3)[C@H]2O)[C@](C)(OC)C[C@@H](C)C(=O)[C@H](C)[C@H]2N(CCc3ccc(Cl)c(Cl)c3)C(=O)O[C@]12C [Example 2, 3'-N-Desmethyl-3'-N-cyclopropyl-11-deoxy-11-[carboxy-(3,4-dichlorophenethylamino)]-6-O-methyl-erythromycin A 11,12-(cyclic carbamate)]"
2,3.24 nM,"CC[C@H]1OC(=O)[C@H](C)[C@@H](O[C@H]2C[C@@](C)(OC)[C@@H](O)[C@H](C)O2)[C@H](C)[C@@H](O[C@@H]2O[C@H](C)C[C@H](N(C)C3CCC3)[C@H]2O)[C@](C)(OC)C[C@@H](C)C(=O)[C@H](C)[C@H]2N(CCc3ccc(Cl)c(Cl)c3)C(=O)O[C@]12C [Example 4, 3'-N-Desmethyl-3'-N-cyclobutyl-11-deoxy-11-[carboxy-(3,4-dichlorophenethylamino)]-6-O-methyl-erythromycin A 11,12-(cyclic carbamate) hydrochloride]"
3,3.63 nM,"CC[C@H]1OC(=O)[C@H](C)[C@@H](O[C@H]2C[C@@](C)(OC)[C@@H](O)[C@H](C)O2)[C@H](C)[C@@H](O[C@@H]2O[C@H](C)C[C@H](N(C)C3CCCCC3)[C@H]2O)[C@](C)(OC)C[C@@H](C)C(=O)[C@H](C)[C@H]2N(CCc3ccc(Cl)c(Cl)c3)C(=O)O[C@]12C [Example 5, 3'-N-Desmethyl-3'-N-cyclohexyl-11-deoxy-11-[carboxy-(3,4-dichlorophenethylamino)]-6-O-methyl-erythromycin A 11,12-(cyclic carbamate)]"
4,8.13 nM,CC[C@H]1OC(=O)[C@H](C)[C@@H](O[C@H]2C[C@@](C)(OC)[C@@H](O)[C@H](C)O2)[C@H](C)[C@@H](O[C@@H]2O[C@H](C)C[C@H](N(C)CCC(C)C)[C@H]2O)[C@](C)(OC)C[C@@H](C)C(=O)[C@H](C)[C@H]2N(CCc3ccc(Cl)c(Cl)c3)C(=O)O[C@]12C [Example 6]
5,4.68 nM,"CC[C@H]1OC(=O)[C@H](C)[C@@H](O[C@H]2C[C@@](C)(OC)[C@@H](O)[C@H](C)O2)[C@H](C)[C@@H](O[C@@H]2O[C@H](C)C[C@H](N(C)CCCSC)[C@H]2O)[C@](C)(OC)C[C@@H](C)C(=O)[C@H](C)[C@H]2N(CCc3ccc(Cl)c(Cl)c3)C(=O)O[C@]12C [Example 7, 3'-N-Desmethyl-3'-N-(3-methylthiopropyl)-11-deoxy-11-[carboxy-(3,4-dichlorophenethylamino)]-6-O-methyl-erythromycin A 11,12-(cyclic carbamate)]"
6,7.41 nM,"CC[C@H]1OC(=O)[C@H](C)[C@@H](O[C@H]2C[C@@](C)(OC)[C@@H](O)[C@H](C)O2)[C@H](C)[C@@H](O[C@@H]2O[C@H](C)C[C@H](N(C)C3CCSC3)[C@H]2O)[C@](C)(OC)C[C@@H](C)C(=O)[C@H](C)[C@H]2N(CCc3ccc(Cl)c(Cl)c3)C(=O)O[C@]12C (some centres unmarked) [Example 8, 3'-N-Desmethyl-3'-N-(3-tetrahydrothienyl)-11-deoxy-11-[carboxy-(3,4-dichlorophenethylamino)]-6-O-methyl-erythromycin A 11,12-(cyclic carbamate)]"
7,1.74 nM,"CC[C@H]1OC(=O)[C@H](C)[C@@H](O[C@H]2C[C@@](C)(OC)[C@@H](O)[C@H](C)O2)[C@H](C)[C@@H](O[C@@H]2O[C@H](C)C[C@H](N(C)C(C)C)[C@H]2O)[C@](C)(OC)C[C@@H](C)C(=O)[C@H](C)[C@H]2N(CC3(c4ccc(Cl)c(Cl)c4)CC3)C(=O)O[C@]12C [Example 10, 3'-N-Desmethyl-3'-N-isopropyl-11-deoxy-11-[carboxy-(α,α-cyclopropyl-3,4-dichlorophenethylamino)]-6-O-methyl-erythromycin A 11,12-(cyclic carbamate)]"
8,3.09 nM,"CC[C@H]1OC(=O)[C@H](C)[C@@H](O[C@H]2C[C@@](C)(OC)[C@@H](O)[C@H](C)O2)[C@H](C)[C@@H](O[C@@H]2O[C@H](C)C[C@H](N(C)C3CCC3)[C@H]2O)[C@](C)(OC)C[C@@H](C)C(=O)[C@H](C)[C@H]2N(CC3(c4ccc(Cl)c(Cl)c4)CC3)C(=O)O[C@]12C [Example 11, 3'-N-Desmethyl-3'-N-cyclobutyl-11-deoxy-11-[carboxy-(α,α-cyclopropyl-3,4-dichlorophenethylamino)]-6-O-methyl-erythromycin A 11,12-(cyclic carbamate)]"
9,2.09 nM,"CC[C@H]1OC(=O)[C@H](C)[C@@H](O[C@H]2C[C@@](C)(OC)[C@@H](O)[C@H](C)O2)[C@H](C)[C@@H](O[C@@H]2O[C@H](C)C[C@H](N(C)C3CCCC3)[C@H]2O)[C@](C)(OC)C[C@@H](C)C(=O)[C@H](C)[C@H]2N(CC3(c4ccc(Cl)c(Cl)c4)CC3)C(=O)O[C@]12C [Example 12, 3'-N-Desmethyl-3'-N-cyclopentyl-11-deoxy-11-[carboxy-(α,α-cyclopropyl-3,4-dichlorophenethylamino)]-6-O-methyl-erythromycin A 11,12-(cycliccarbamate)]"
10,7.94 nM,"CC[C@H]1OC(=O)[C@H](C)[C@@H](O[C@H]2C[C@@](C)(OC)[C@@H](O)[C@H](C)O2)[C@H](C)[C@@H](O[C@@H]2O[C@H](C)C[C@H](N(C)C3CCCCC3)[C@H]2O)[C@](C)(OC)C[C@@H](C)C(=O)[C@H](C)[C@H]2N(CC3(c4ccc(Cl)c(Cl)c4)CC3)C(=O)O[C@]12C [Example 13, 3'-N-Desmethyl-3'-N-cyclohexyl-11-deoxy-11-[carboxy-(α,α-cyclopropyl-3,4-dichlorophenethylamino)]-6-O-methyl-erythromycin A 11,12-(cyclic carbamate)]"
11,1.78 nM,"CCCN(C)[C@H]1C[C@@H](C)O[C@@H](O[C@@H]2[C@@H](C)[C@H](O[C@H]3C[C@@](C)(OC)[C@@H](O)[C@H](C)O3)[C@@H](C)C(=O)O[C@H](CC)[C@@]3(C)OC(=O)N(CCc4ccc5c(c4)OCO5)[C@@H]3[C@@H](C)C(=O)[C@H](C)C[C@@]2(C)OC)[C@@H]1O [Example 14, 3'-N-Desmethyl-3'-N-n-propyl-11-deoxy-11-[carboxy-(3,4-dioxolanophenethylamino)]-6-O-methyl-erythromycin A 11,12-(cyclic carbamate)]"
12,6.31 nM,"CC[C@H]1OC(=O)[C@H](C)[C@@H](O[C@H]2C[C@@](C)(OC)[C@@H](O)[C@H](C)O2)[C@H](C)[C@@H](O[C@@H]2O[C@H](C)C[C@H](N(C)C3CCCC3)[C@H]2O)[C@](C)(OC)C[C@@H](C)C(=O)[C@H](C)[C@H]2N(CCc3ccc4c(c3)OCO4)C(=O)O[C@]12C [Example 15, 3'-N-Desmethyl-3'-N-cyclopentyl-11-deoxy-11[carboxy-(3,4-dioxolanophenethylamino)]-6-O-methyl-erythromycin A 11,12-(cyclic carbamate)]"
